Counter-ions that a name gives are not always drawn. Some results are limits rather than exact numbers.

IC50 data for 53 molecules are collected here from BindingDB's records for doi:10.7270/Q2319T8T (The Scripps Research Institute Molecular Screening Center, 2007).

The target in one experiment is Steroidogenic factor 1 (Homo sapiens, UniProt Q13285). In words: SF-1 inhibitor potency, dose response, cell-based, CHO-K1, Gal4-SF-1 LBD, luciferase luminescence (AID 600).
Chain of Steroidogenic factor 1 (Q13285 whole entry, the tested form may be a part): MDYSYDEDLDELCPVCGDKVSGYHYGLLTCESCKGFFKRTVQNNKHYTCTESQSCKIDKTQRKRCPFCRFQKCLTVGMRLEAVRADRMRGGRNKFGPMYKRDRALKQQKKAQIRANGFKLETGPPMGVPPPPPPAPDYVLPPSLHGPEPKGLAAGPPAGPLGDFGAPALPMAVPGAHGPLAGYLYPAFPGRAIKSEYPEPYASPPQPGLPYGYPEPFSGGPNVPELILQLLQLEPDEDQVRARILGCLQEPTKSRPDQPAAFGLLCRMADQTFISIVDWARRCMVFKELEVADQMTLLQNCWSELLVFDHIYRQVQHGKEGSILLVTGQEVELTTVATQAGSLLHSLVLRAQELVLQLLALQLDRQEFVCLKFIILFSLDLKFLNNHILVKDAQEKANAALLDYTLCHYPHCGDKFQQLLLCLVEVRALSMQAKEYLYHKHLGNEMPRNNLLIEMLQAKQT
Settings: not given
On to `Cc1ccc(-c2nnc(Nc3ccccc3)o2)cc1` [5-(4-methylphenyl)-N-phenyl-1,3,4-oxadiazol-2-amine], for which the IC50 was 5.17 µM.

Take `c1ccc2c(c1)CCN(c1ncnc3c1[nH]c1ccccc13)C2` [SMR000039631]: the concentration for half-maximal inhibition (IC50) came out at 9.03 µM. Against the preceding molecule, the IC50 is about 1.7-fold higher.

Take `CC(=O)Nc1ccccc1OCC(=O)c1cc(C)n(Cc2cccs2)c1C` [MLS000056239]: 2.78 µM corresponded to half-maximal inhibition (IC50).

Regarding `CCOC(=O)C1CCN(c2ncnc3c2cnn3-c2ccc(Cl)cc2)CC1` [1-[1-(4-chlorophenyl)-4-pyrazolo[3,4-d]pyrimidinyl]-4-piperidinecarboxylic acid ethyl ester], the midpoint of inhibition, the IC50, lay at 3.42 µM.

With `Nc1nonc1C(=O)NCCNCc1cc(Br)ccc1OCc1ccc(F)cc1` [4-amino-N-[2-[[5-bromo-2-(4-fluorobenzyl)oxy-benzyl]amino]ethyl]furazan-3-carboxamide;hydrochloride], the concentration for half-maximal inhibition (IC50) is 4.46 µM. The IC50 values of the last two molecules are within 1.5-fold of each other.

On to `c1ccc(-n2ncc3c(N4CCCCC4)ncnc32)cc1` [1-phenyl-4-(1-piperidinyl)pyrazolo[3,4-d]pyrimidine], for which the IC50 was 5.86 µM.

Take `CCOc1ccc(-c2cc(CCCC(=O)NCCc3ccc(OC)c(OC)c3OC)no2)cc1` [4-(5-p-phenetylisoxazol-3-yl)-N-[2-(2,3,4-trimethoxyphenyl)ethyl]butyramide]: half-maximal inhibition (IC50) required 7.53 µM. The IC50 values of the last two molecules are within 1.5-fold of each other.

`O=C1c2ccccc2C(=O)C1c1ccc2ccccc2n1` had an IC50 of 6.72 µM.

`COc1cccc2c1C(=O)c1c(O)c3c(c(O)c1C2=O)C[C@@](O)(C(=O)CO)C[C@@H]3O[C@H]1C[C@H](N)[C@H](O)[C@H](C)O1` [MLS000028393] had a half-maximal inhibitory concentration (IC50) of 0.964 µM.

The molecule `COc1cc(C2C3=C(N=C(C)C2C#N)c2ccccc2C3=O)cc(OC)c1OC` (stereo not drawn) [2-methyl-5-oxidanylidene-4-(3,4,5-trimethoxyphenyl)-1,4-dihydroindeno[1,2-b]pyridine-3-carbonitrile] had a concentration for half-maximal inhibition (IC50) of more than 1.22 µM.

`O=S1(=O)C=C(Sc2nc3ccccc3s2)c2ccccc21` [2-[(1,1-dioxido-1-benzothien-3-yl)thio]-1,3-benzothiazole] had a 50% inhibitory concentration (IC50) of 0.713 µM.

For the molecule `CCOc1ccc(-c2noc(CCC(=O)O)n2)cc1` [3-(3-p-phenetyl-1,2,4-oxadiazol-5-yl)propionic acid], half-maximal inhibition (IC50) required 3.89 µM.

As for `c1ccc(-c2noc(-c3ccc4ccccc4c3)n2)cc1` [5-(2-naphthalenyl)-3-phenyl-1,2,4-oxadiazole], the 50% inhibitory concentration (IC50) worked out at 8.89 µM.

The molecule `CCCCCOC(=O)c1[nH]c2c(c1C)C(=O)CC(c1ccco1)C2` (stereo not drawn) [pentyl 6-(furan-2-yl)-3-methyl-4-oxidanylidene-1,5,6,7-tetrahydroindole-2-carboxylate] displayed a half-maximal inhibitory concentration (IC50) of more than 1.22 µM.

Consider `c1ccc(N2CCN(c3nc(-c4ccccn4)nc4ccccc34)CC2)cc1` [4-(4-phenyl-1-piperazinyl)-2-(2-pyridinyl)quinazoline], for which the concentration for half-maximal inhibition (IC50) turned out to be 5.65 µM.

`O=C(Nc1ccccc1NC(=O)NC1CCCCC1)NC1CCCCC1` [1-cyclohexyl-3-[2-(cyclohexylcarbamoylamino)phenyl]urea] yielded an IC50 of 1.64 µM.

With `CCc1ccc2oc(-c3cc(N=Cc4cccc(OC)c4O)ccc3O)nc2c1` [(6E)-6-[[[(3E)-3-(5-ethyl-3H-1,3-benzoxazol-2-ylidene)-4-keto-cyclohexa-1,5-dien-1-yl]amino]methylene]-2-methoxy-cyclohexa-2,4-dien-1-one], the IC50 was determined as 5.66 µM.

Turning to `CN(CC1CCCO1)S(=O)(=O)c1ccc(C(=O)Nc2nc(-c3ccccn3)cs2)cc1` (stereo not drawn) [4-[methyl(2-oxolanylmethyl)sulfamoyl]-N-[4-(2-pyridinyl)-2-thiazolyl]benzamide], the IC50 is more than 3.67 µM.

On to `COc1ccc(OC)c(Nc2nc(-c3ccc(O)c(O)c3)cs2)c1` [4-[2-(2,5-Dimethoxy-phenylamino)-thiazol-4-yl]-benzene-1,2-diol], for which the half-maximal inhibitory concentration (IC50) was more than 3.67 µM.

`CCOC(=O)C1CCN(Cc2ccc(O)c3ncccc23)CC1` [1-(8-Hydroxy-quinolin-5-ylmethyl)-piperidine-4-carboxylic acid ethyl ester]: half-maximal inhibition (IC50) required 9.85 µM. This counts as single-digit micromolar.

`COc1ccc(OCc2cccc(C(=O)O)c2)cc1` [3-[(4-methoxyphenoxy)methyl]benzoic acid]: the IC50 amounted to 0.421 µM. This IC50 is about 23-fold lower than that of the molecule before.

In the case of `c1ccc(-c2cn3c4c(sc3n2)CCCC4)cc1` [2-phenyl-5,6,7,8-tetrahydroimidazo[2,1-b][1,3]benzothiazole], the IC50 stood at 4.54 µM. Compared with the last molecule, the IC50 is about 11-fold higher.

On to `COc1cccc2c1C(=O)c1c(O)c3c(c(O)c1C2=O)C[C@@](O)(C(C)=O)C[C@@H]3O[C@H]1C[C@H](N)[C@H](O)[C@H](C)O1` [(7S,9S)-9-acetyl-7-[(2R,4S,5S,6S)-4-amino-5-hydroxy-6-methyloxan-2-yl]oxy-6,9,11-trihydroxy-4-methoxy-8,10-dihydro-7H-tetracene-5,12-dione;hydrochloride], for which the IC50 is 0.54 µM.

In turn, `CCCN1C=CC(=C2C(=O)c3ccccc3C2=O)C=C1` [2-(1-propyl-4-pyridinylidene)indene-1,3-dione] showed an IC50 of 0.363 µM.

In turn, `O=C1c2ccccc2C(=O)C1c1nccc2ccccc12` [2-(1-isoquinolinyl)indene-1,3-dione] had a 50% inhibitory concentration (IC50) of 4.03 µM.

Molecule `O=S1(=O)C=C(Sc2nc3cc(Cl)ccc3o2)c2ccccc21` [SMR000019512] yielded an IC50 of 5.11 µM.

In turn, `Cc1oc(-c2ccc3c(c2)OCCO3)cc1C(=O)O` [5-(2,3-dihydro-1,4-benzodioxin-6-yl)-2-methyl-3-furancarboxylic acid] displayed an IC50 of 5.55 µM.

In turn, `Cc1cc(C(=O)Nc2cccc(C(=O)O)c2)oc1C` [3-[(4,5-dimethyl-2-furoyl)amino]benzoic acid] registered a 50% inhibitory concentration (IC50) of 3.13 µM.

Molecule `CCc1c(C)nc2ncnn2c1NCCc1ccc(OC)cc1` [(6-Ethyl-5-methyl-[1,2,4]triazolo[1,5-a]pyrimidin-7-yl)-[2-(4-methoxy-phenyl)-ethyl]-amine] registered an IC50 of more than 11 µM.

On to `COc1ccc(C(=O)Nc2ccc(C)cn2)c(OC)c1` [2,4-dimethoxy-N-(5-methylpyridin-2-yl)benzamide], for which the IC50 was 3.4 µM.

In turn, `CCN1C(=O)/C(=C2/Sc3ccc(OC)cc3N2C)S/C1=N\c1cccc(O)c1` [(5Z)-3-ethyl-2-(3-hydroxyphenyl)imino-5-(5-methoxy-3-methyl-1,3-benzothiazol-2-ylidene)-1,3-thiazolidin-4-one] yielded a half-inhibitory concentration (IC50) of 7.66 µM.

Molecule `Cc1nnc(Sc2nc(Sc3nnc(C)s3)nc(N3CCN(C)CC3)n2)s1` [2-(4-Methyl-piperazin-1-yl)-4,6-bis-(5-methyl-[1,3,4]thiadiazol-2-ylsulfanyl)-[1,3,5]triazine] displayed an IC50 of 2.64 µM.

In turn, `CCc1ccc(-c2cn3nc(C)c(C)nc3n2)cc1` [6-(4-ethylphenyl)-2,3-dimethyl-imidazo[1,2-b][1,2,4]triazine] had a half-maximal inhibitory concentration (IC50) of 3.21 µM.

`Cc1cccc(NC(=O)CSc2nnc(-c3cc(C)n(-c4ccccc4)c3C)o2)c1C` [MLS000036049] registered an IC50 of more than 1.22 µM.

`CC(NC(=O)Nc1nnc(C(F)(F)F)s1)(C(F)(F)F)C(F)(F)F` [1-(1,1,1,3,3,3-hexafluoro-2-methylpropan-2-yl)-3-[5-(trifluoromethyl)-1,3,4-thiadiazol-2-yl]urea] displayed an IC50 of 6.25 µM.

`O=C(NC1CC1)c1ccc(-c2nc3ccccc3s2)s1` [5-(1,3-benzothiazol-2-yl)-N-cyclopropyl-2-thiophenecarboxamide] returned a concentration for half-maximal inhibition (IC50) of 2.81 µM. Compared with the last molecule, the IC50 is about 2.2-fold lower.

Molecule `Cc1cccc(-n2ncc3c(N4CCOCC4)ncnc32)c1` [4-[1-(3-methylphenyl)-4-pyrazolo[3,4-d]pyrimidinyl]morpholine] displayed a 50% inhibitory concentration (IC50) of 4.02 µM.

Turning to `CN(C)c1ccc(NC(=S)c2ccccn2)cc1` [MLS000111989], it took 2.41 µM to reach half-maximal inhibition (IC50).

`COc1ccccc1-c1nnc2n1N=C(c1ccc(O)c(O)c1)CS2` [(4E)-4-[3-(2-methoxyphenyl)-5H-[1,2,4]triazolo[3,4-b][1,3,4]thiadiazin-6-ylidene]-2-oxidanyl-cyclohexa-2,5-dien-1-one] came in with an IC50 of 10.4 µM.

In turn, `O=C(NC1=NCCS1)C1COc2ccccc2O1` (stereo not drawn) [MLS000056062] displayed a half-inhibitory concentration (IC50) of 5.24 µM.

Turning to `c1ccc2nc(-c3nc4ccccc4o3)ccc2c1` [2-(1,3-benzoxazol-2-yl)quinoline], half-maximal inhibition (IC50) was put at 6.81 µM.

Take `O=C(Nc1nc(-c2ccccn2)cs1)c1ccc(S(=O)(=O)N2CCCCC2)cc1` [4-(1-piperidinylsulfonyl)-N-[4-(2-pyridinyl)-2-thiazolyl]benzamide]: the half-inhibitory concentration (IC50) came out at 9.93 µM. This IC50 and that of the molecule before are within 1.5-fold of each other.

Molecule `COc1cc(CN2CCN(c3cc(C)ccc3C)CC2)ccc1O` [4-[[4-(2,5-dimethylphenyl)-1-piperazinyl]methyl]-2-methoxyphenol] returned a concentration for half-maximal inhibition (IC50) of 4.07 µM.

`COc1cc(NS(=O)(=O)c2ccc(C)cc2C)cc(OC)c1OC` [2,4-dimethyl-N-(3,4,5-trimethoxyphenyl)benzenesulfonamide] yielded an IC50 of more than 11 µM.

The molecule `Cc1ccc(C(C)C)c(OCCNc2nc3c(c(=O)n(C)c(=O)n3C)n2C)c1` [1,3,7-trimethyl-8-[2-(5-methyl-2-propan-2-yl-phenoxy)ethylamino]purine-2,6-dione] yielded an IC50 of more than 99 µM.

Staying with this experiment, now noted: inactive by the depositor's call.
`CC(=O)c1sc(NC(=O)C2(F)C(F)(F)C(F)(F)C(F)(F)C(F)(F)C2(F)F)nc1C` [MLS000040071] registered a concentration for half-maximal inhibition (IC50) of 15.6 µM.

Molecule `CCCCOc1ccc(OC(=O)c2cccnc2)cc1` [(4-butoxyphenyl) pyridine-3-carboxylate] registered an IC50 of 15.4 µM.

`CCN(C(=O)c1ccc(C(C)(C)C)cc1)c1nnc(Cn2nnc3ccccc32)s1` [MLS000072751] showed a half-maximal inhibitory concentration (IC50) of 10.4 µM.

`COc1ccc(OC)c(NS(=O)(=O)c2ccc(N3CCCC3=O)cc2)c1` [MLS000079343]: the IC50 amounted to 36 µM. Against the preceding molecule, the IC50 is about 3.5-fold higher.

For the molecule `Cn1c(=O)c2c(nc(NCc3ccco3)n2C/C=C/c2ccccc2)n(C)c1=O` [7-[(E)-cinnamyl]-8-(2-furfurylamino)-1,3-dimethyl-xanthine], the IC50 came out at 16.9 µM. This IC50 is about 2.1-fold lower than that of the molecule before.

In the case of `c1csc(CCNc2ncnc3sc4c(c23)CCC4)c1` [7,8-dihydro-6H-cyclopenta[4,5]thieno[1,2-c]pyrimidin-1-yl-[2-(2-thienyl)ethyl]amine], the IC50 came out at 11.1 µM.

The molecule `CC1CCCCN1S(=O)(=O)c1ccc(C(=O)Nc2nnc(-c3cccs3)o2)cc1` (stereo not drawn) [4-(2-methylpiperidin-1-yl)sulfonyl-N-(5-thiophen-2-yl-1,3,4-oxadiazol-2-yl)benzamide] yielded a half-inhibitory concentration (IC50) of 17.7 µM.

With `Cc1csc(NC(=O)Cc2nn(C)c(=O)c3ccccc23)n1` [2-(3-methyl-4-oxidanylidene-phthalazin-1-yl)-N-(4-methyl-1,3-thiazol-2-yl)ethanamide], the IC50 worked out at 34.3 µM. Compared with the last molecule, the IC50 is about 1.9-fold higher.

The IC50 is the concentration that gives 50% inhibition.
